# Read-outs that look alike come from different tables or passages of the source.
# Assays:
# [1] = test system: urinary reflex of Sprague-Dawley female rats; assay: Inhibitory action against accentuated urinary reflex of rat due to destruction of the superior colliculus (cystometrogram); type: in vivo; details: iv, rat with superior colliculus lesion
# From the text: (1) In the present test, Sprague-Dawley female rates (200-350 g) were used. The rats were subjected to median incision of the abdomen under anesthesia. Thereafter, a hole with a minor diameter was made on the head portion of the bladder, and a catheter used for measurement of an intravesical pressure was placed therein. A catheter used for administration of a test substance was placed in the femoral vein. These catheters were fixed at the occipital region of the rat through the subcutis. One day later, the urinary reflex of the rats was measured with a cystometrogram. Thereafter, the rats were fixed on a brain stereotaxis apparatus under anesthesia, and then subjected to median incision of the scalp. […] Thereafter, electric current was applied (65° C., 4 minutes), so as to damage the brain tissues. After completion of the operation, when the rat awakened from anesthesia, cystometrogram was conducted again to confirm the enhanced state of urinary reflex. A test substance was administered through the catheter placed in the femoral vein, and the action of the test substance to the urinary reflex was evaluated. In addition, the effects of several test substances were compared using the maximal reaction (Emax).
# [2] = target: T1, 5-HT1A receptor (Sus scrofa, UniProt A0A4X1UTF5); assay: Affinity for serotonin 1A receptor: inhibition of [3H]MPPF binding in swine hippocampal membrane fraction; details: for IC50: [3H]MPPF 0.5 nM, swine hippocampal membrane, 37°C 30 min; for L/H ratio: low affinity IC50 divided by high affinity IC50, 1 or smaller = no intrinsic activity, 2 or greater = intrinsic activity
# T1 construct: Swine hippocampus was homogenized in a 50 mM Tris-Hcl buffer; from tissue; host or cells: swine hippocampus, membrane fraction
# T1 sequence (A0A4X1UTF5 1-422): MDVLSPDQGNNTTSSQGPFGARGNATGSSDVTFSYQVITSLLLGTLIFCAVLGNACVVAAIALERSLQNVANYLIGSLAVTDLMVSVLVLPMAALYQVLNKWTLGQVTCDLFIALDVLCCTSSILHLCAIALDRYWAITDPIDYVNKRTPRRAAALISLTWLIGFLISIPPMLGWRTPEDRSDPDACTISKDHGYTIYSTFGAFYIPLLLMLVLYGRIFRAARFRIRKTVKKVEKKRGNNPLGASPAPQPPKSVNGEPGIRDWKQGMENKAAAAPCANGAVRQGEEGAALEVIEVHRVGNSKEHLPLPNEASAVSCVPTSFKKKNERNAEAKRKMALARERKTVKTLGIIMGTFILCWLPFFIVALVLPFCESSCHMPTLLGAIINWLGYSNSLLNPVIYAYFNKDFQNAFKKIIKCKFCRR
# Procedure, shortened: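 Swine hippocampal membranes incubated 30 min at 37 °C with 0.5 nM [3H]MPPF and test compound in 50 mM Tris-HCl pH 7.4, 1% DMSO, with 10 mM MgCl2 (G-protein-coupled, high-affinity state) or 1 mM Gpp(NH)p (uncoupled, low-affinity state). Bound radioactivity measured by filtration and scintillation counting; nonspecific binding defined with 10 μM WAY-100,635. IC50 in each state; low/high IC50 ratio taken as an estimate of intrinsic activity.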
# [3] = target: T2, serotonin 1A receptor (Mus musculus, UniProt Q64264); assay: Antagonistic effect on serotonin 1A receptor agonist (8-OH-DPAT)-induced hypothermia in mouse; type: in vivo; details: for ED50: CD-1 (ICR) male mice, inhibition of hypothermia by 8-OH-DPAT 0.5 mg/kg sc, test substance 15 minutes before agonist
# T2 construct: into the rectum of CD-1 (ICR) male mice (25-45 g); from tissue; host or cells: living CD-1 (ICR) male mice (in vivo)
# T2 sequence (Q64264 1-421): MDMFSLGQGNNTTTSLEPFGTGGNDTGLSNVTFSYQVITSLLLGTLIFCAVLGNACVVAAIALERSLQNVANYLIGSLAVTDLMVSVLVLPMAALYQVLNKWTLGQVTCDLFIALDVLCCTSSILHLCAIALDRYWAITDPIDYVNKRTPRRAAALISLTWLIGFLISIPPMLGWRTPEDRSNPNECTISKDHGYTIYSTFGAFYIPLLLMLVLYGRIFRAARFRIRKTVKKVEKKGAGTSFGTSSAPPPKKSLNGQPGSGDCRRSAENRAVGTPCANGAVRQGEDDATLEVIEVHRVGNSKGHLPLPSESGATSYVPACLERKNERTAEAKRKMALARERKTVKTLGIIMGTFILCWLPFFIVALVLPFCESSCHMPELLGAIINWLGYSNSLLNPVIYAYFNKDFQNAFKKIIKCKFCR
# Procedure, shortened: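 CD-1 (ICR) male mice, 25-45 g; rectal temperature by thermistor probe at about 2 cm depth. Test substance given 15 min before s.c. 8-OH-DPAT […]; antagonism scored as inhibition of the induced hypothermia.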
# [4] = receptor in high affinity (G-protein binding, MgCl2 10 mM) state, read-out: High affinity IC50
# [5] = receptor in low affinity (G-protein non-binding, Gpp(NH)p 1 mM) state, read-out: Low affinity IC50
"IC50 [2, 4] [pM]","IC50 [2, 5] [pM]",L/H ratio [2],ED50 [3],SMILES,Bladder capacity Emax ([1]; dose 0.03 mg/kg) [%],Bladder capacity Emax ([1]; dose 0.01 mg/kg) [%],"IC50 ([2]; read-out: Low affinity IC50, receptor in low affinity (G-protein non-binding, Gpp(NH)p 1 mM) state) [pM]",affinity for 5-HT1A ([2]; result in words),antagonistic effect against the receptor ([3]; result in words)
460,340,0.7,"0.18 mg/kg, sc","COc1ccc2nc(C)oc2c1CCN1CCC(n2ccc3ccc(C(N)=O)cc32)CC1 [Compound 3, 1-{1-[2-(6-methoxy-2-methylbenzoxazol-7-yl)ethyl]piperidin-4-yl}-1H-indole-6-carboxamide]",62,–,–,–,–
230,230,1,"0.21 mg/kg, sc","COc1ccc2c(c1CCN1CCC(n3ccc4ccc(C(N)=O)cc43)CC1)OCCC2=O [Compound 47, 1-{1-[2-(7-methoxy-4-oxochroman-8-yl)ethyl]piperidin-4-yl}-1H-indole-6-carboxamide]",–,–,–,–,–
140,190,1.4,"0.02 mg/kg, sc","COc1cc2nc(C)sc2cc1CCN1CCC(n2ccc3ccc(C(N)=O)cc32)CC1 [Compound 28, 1-{1-[2-(5-methoxy-2-methylbenzothiazol-6-yl)ethyl]piperidin-4-yl}-1H-indole-6-carboxamide]",–,–,–,–,–
160,150,0.9,"0.04 mg/kg, sc","COc1cc2c(cc1CCN1CCC(n3ccc4ccc(C(N)=O)cc43)CC1)OCCO2 [Compound 31, 1-{1-[2-(7-methoxy-2,3-dihydrobenz[1,4]dioxin-6-yl)ethyl]piperidin-4-yl}-1H-indole-6-carboxamide]",–,–,–,–,–
130,100,0.8,"0.1 mg/kg, sc","COc1ccc2c(c1CCN1CCC(n3ccc4ccc(C(N)=O)cc43)CC1)OC(C)(C)CC2=O [Compound 22, 1-{1-[2-(7-methoxy-2,2-dimethyl-4-oxochroman-8-yl)ethyl]piperidin-4-yl}-1H-indole-6-carboxamide]",–,–,–,–,–
180,160,0.9,"0.1 mg/kg, sc","COc1ccc2c(c1CCN1CCC(n3ccc4ccc(C(N)=O)cc43)CC1)CCC2=O [Compound 25, 1-{1-[2-(5-methoxy-1-oxoindan-4-yl)ethyl]piperidin-4-yl}-1H-indole-6-carboxamide]",–,–,–,–,–
220,230,1,"0.07 mg/kg, sc","COc1cc2nc(C)oc2cc1CCN1CCC(n2ccc3ccc(C(N)=O)cc32)CC1 [Compound 8, 1-{1-[2-(5-methoxy-2-methylbenzoxazol-6-yl)ethyl]piperidin-4-yl}-1H-indole-6-carboxamide]",–,–,–,–,–

SMILES,"IC50 [2, 4] [pM]","IC50 [2, 5] [pM]",L/H ratio [2],ED50 [3],Bladder capacity Emax ([1]; dose 0.03 mg/kg) [%],Bladder capacity Emax ([1]; dose 0.01 mg/kg) [%],"IC50 ([2]; read-out: Low affinity IC50, receptor in low affinity (G-protein non-binding, Gpp(NH)p 1 mM) state) [pM]",affinity for 5-HT1A ([2]; result in words),antagonistic effect against the receptor ([3]; result in words)
"COc1cc2oc(C)nc2cc1CCN1CCC(n2ccc3ccc(C(N)=O)cc32)CC1 [Compound 4, 1-{1-[2-(6-methoxy-2-methylbenzoxazol-5-yl)ethyl]piperidin-4-yl}-1H-indole-6-carboxamide]",170,150,0.9,"0.1 mg/kg, sc",107,–,–,–,–
"NC(=O)c1ccc2ccn(C3CCN(CCc4ccc(F)cc4)CC3)c2c1 [Compound A, reference compound]",100,–,3.7,">1 mg/kg, sc",–,−36,500,has affinity,weak

# — patent US20050256103A1, “Indole derivative having piperidine ring” (Eisai Co., Ltd., priority 2004, published 2005)
